We go through nine compounds from patent US7115603B2, “A1-pyrrolines” (priority 2001, dated 2006).

Where two headings read alike, the source gives them in different places.

The nature of data set [1]: log P by HPLC on reversed-phase column (EEC Directive 79/831 Annex V.A8). It is filed as physicochemical. The protocol:
The log p values reported in the above tables and preparation examples are determined in accordance with EEC Directive 79/831 Annex V.A8 by means of HPLC (high performance liquid chromatography) on a reversed-phase column (C 18). Temperature: 43° C.
Determination is carried out in the acidic range at a pH of 2.3 using 0.1% aqueous phosphoric acid and acetonitrile as mobile phases; linear gradient from 10% acetonitrile to 90% acetonitrile. The values are marked in the tables with ^a).
Determination takes place in the neutral range at a pH of 7.5 with 0.01-molar aqueous phosphate buffer solution and acetonitrile as mobile phases; linear gradient from 10% acetonitrile to 90% acetonitrile. The values are marked in the tables with ^b).
The calibration is carried out using unbranched alkan-2-ones (having from 3 to 16 carbon atoms) whose logP values are known (logP values determined on the basis of the retention times, using linear interpolation between two successive alkanones).

The subject of data set [2] is larvae of the mustard beetle (Phaedon cochleariae). Kind of data set: Phaedon larvae test (cabbage leaves dipped). It is filed as in vivo. To be noted: 168 h, kill, 7 d, read-out: Efficacy in % after 7 d; for pest or weed control at 100 ppm: 100 ppm active compound. The protocol: (§1) [table] To produce a suitable preparation of active compound, 1 part by weight of active compound is mixed with the stated amounts of solvent and emulsifier, and the concentrate is diluted with emulsifier-containing water to the desired concentration. Cabbage leaves (Brassica oleracea) are treated by being dipped into the preparation of active compound of the desired concentration and are populated with larvae of the mustard beetle (Phaedon cochleariae) whilst the leaves are still moist. After the desired period of time, the kill in % is determined. 100% means that all beetle larvae have been killed; 0% means that none of the beetle larvae has been killed.

For data set [3], the system named is army worm (Spodoptera frugiperda) caterpillars. The data set is described as follows: Spodoptera frugiperda test (cabbage leaves dipped). To be noted: 168 h, kill, 100 ppm active compound, 7 d, read-out: Efficacy in % after 7 d. It is filed as in vivo. The protocol: as §1, with “army worm (Spodoptera frugiperda) caterpillars” for “larvae of the mustard beetle (Phaedon cochleariae)”, “caterpillars” for “beetle larvae”

Data set [4] deals with Heliothis virescens caterpillars. The data set is described as follows: Heliothis virescens test (soya bean shoots dipped). It is filed as in vivo. The note with it: kill, 100 ppm active compound. The protocol: as §1, with “Soya bean shoots (Glycine max)” for “Cabbage leaves (Brassica oleracea)”, “Heliothis virescens caterpillars” for “larvae of the mustard beetle (Phaedon cochleariae)”, “caterpillars” for “beetle larvae”

For data set [5], the system named is army worm (Spodoptera exigua) caterpillars. Kind of data set: Spodoptera exigua test (cabbage leaves dipped). Format: in vivo. To be noted: kill. The protocol:
as §1, with “army worm (Spodoptera exigua) caterpillars” for “larvae of the mustard beetle (Phaedon cochleariae)”, “caterpillars” for “beetle larvae”

Data set [6] deals with cabbage moth (Plutella xylostella) caterpillars. The data set is described as follows: Plutella test (cabbage leaves dipped). Format: in vivo. The note with it: kill. The procedure:
as §1, with “cabbage moth (Plutella xylostella) caterpillars” for “larvae of the mustard beetle (Phaedon cochleariae)”, “caterpillars” for “beetle larvae”

In data set [7] the test system is greenhouse red spider mite (Tetranychus urticae). The data set is described as follows: Tetranychus test (OP resistant/dip treatment). It is filed as in vivo. The note with it: kill of spider mites, 100 ppm active compound. The protocol:
[table] To produce a suitable preparation of active compound, 1 part by weight of active compound is mixed with the stated amounts of solvent and emulsifier, and the concentrate is diluted with emulsifier-containing water to the desired concentration. Bean plants (Phaseolus vulgaris) which are heavily infested by all stages of the greenhouse red spider mite (Tetranychus urticae) are dipped into a preparation of active compound of the desired concentration. After the desired period of time, the effect in % is determined. 100% means that all spider mites have been killed; 0% means that none of the spider mites has been killed.

Data set [8] relates to Lucilia cuprina larvae. Kind of data set: Blowfly larvae test/development-inhibiting effect. Format: in vivo. To be noted: for mortality at 100 ppm: 100 ppm active compound; for mortality at 20 ppm: 20 ppm active compound. The procedure:
20 mg of active compound are dissolved in 1 ml of dimethyl sulphoxide; lower concentrations are prepared by dilution with distilled water.
About 20 Lucilia cuprina larvae are introduced into a test tube containing about 1 cm^3 of horse meat and 0.5 ml of the test preparation of active compound. After 24 and 48 hours, the activity of the preparation is determined. The test tubes are transferred to beakers with their bases covered with sand. After a further 14 days, the test tubes are removed and the pupae/flies are counted.
The effect of the preparation is assessed according to the number of flies which have hatched after 1.5 times the development period of an untreated control. 100% means that no flies have hatched; 0% means that all of the flies have hatched normally.

Data set [9] has as its system cotton aphid (Aphis gossypii). Kind of data set: Aphis gossypii test (cotton leaves dipped). It is filed as in vivo. To be noted: kill, 100 ppm active compound. The protocol: [table] To produce a suitable preparation of active compound, 1 part by weight of active compound is mixed with the stated amounts of solvent and emulsifier, and the concentrate is diluted with emulsifier-containing water to the desired concentration. Cotton leaves (Gossypium hirsutum) heavily infested by the cotton aphid (Aphis gossypii) are treated by being dipped into the preparation of active compound of the desired concentration. After the desired period of time, the kill in % is determined. 100% means that all […] have been killed; 0% means that none of the aphids has been killed.

Data set [10] deals with fruit tree red spider mite (Panonychus ulmi). Kind of data set: Panonychus test (plum trees dipped). It is filed as in vivo. To be noted: kill of spider mites, 100 ppm active compound. The procedure: To produce a suitable preparation of active compound, 1 part by weight of active compound is mixed with the stated amounts of solvent and emulsifier, and the concentrate is diluted with emulsifier-containing water to the desired concentration.
Plum trees (Prunus domestica) about 30 cm high which are heavily infested by all stages of the fruit tree red spider mite (Panonychus ulmi) are dipped into a preparation of active compound of the desired concentration.
After the desired period of time, the effect in % is determined. 100% means that all spider mites have been killed; 0% means that none of the spider mites has been killed.

The subject of data set [11] is caterpillars of the cotton bollworm (Heliothis armigera). The data set is described as follows: Heliothis armigera test (soya bean shoots dipped). It is filed as in vivo. To be noted: kill, 20 ppm active compound. The procedure:
as §1, with “concentration. Soya bean shoots (Glycine max)” for “concentration. Cabbage leaves (Brassica oleracea)”, “with caterpillars” for “with larvae”, “the cotton bollworm (Heliothis armigera)” for “the mustard beetle (Phaedon cochleariae)”, “all […]” for “all beetle larvae”, “the caterpillars” for “the beetle larvae”

Setting [12] is: reversed-phase HPLC column (C18); HPLC, acidic range pH 2.3, marked a).
Where [13] appears, read: reversed-phase HPLC column (C18); HPLC, neutral range pH 7.5, marked b).
Where [14] appears, read: 336 h, 14 d, inhibition of fly hatching, read-out: % Activity/kill (14 d).

As usually defined, the chromatographic logP is lipophilicity estimated from chromatographic retention. A higher chromatographic logP goes with higher lipophilicity. As to `CCOc1ccc(Br)cn1` [III-1, 5-bromo-2-ethoxypyridine], the chromatographic logP in data set [1] (setting [12]) worked out at 2.92.

As to `CCOc1ccc(-c2ccc(C3CCC(c4c(F)cccc4F)=N3)cc2)cn1` (stereo not drawn) [No. 1, 5-{4-[5-(2,6-difluorophenyl)-3,4-dihydro-2H-pyrrol-2-yl]phenyl}-2-ethoxypyridine], the pest or weed control at 100 ppm in [2] and in data set [3] was 100% in each case. The compound further yielded a chromatographic logP in [1] (setting [12]) of 2.92.

Regarding `CCSc1ccc(-c2ccc(C3CCC(c4c(F)cccc4F)=N3)cc2)cn1` (stereo not drawn) [compound 4], the pest or weed control at 100 ppm in data set [2] and in [3] was 100% throughout. Besides, the “Efficacy in % after 7 d” value in data set [4] is listed as 100%; in data set [5] (100 ppm active compound), 100%; in [6] (100 ppm active compound), 100%; in data set [7] it was 95%. In addition, the figures for the chromatographic logP in [1] (setting [12]) and in [1] (setting [13]) were 3.29 and 4.54, respectively. In data set [8] (setting [14]), the mortality at 100 ppm amounted to 100%.

Consider `CCCOc1ccc(-c2ccc(C3CCC(c4c(F)cccc4F)=N3)cc2)cn1` (stereo not drawn) [compound 5], for which, in data set [9], the “Efficacy in % after 6 d” value was 99%. The pest or weed control at 100 ppm in data set [2] and in data set [3] was 100% throughout. Besides, the “Efficacy in % after 7 d” value was 100% in data set [4], 100% in data set [5] (100 ppm active compound), 100% in data set [6] (100 ppm active compound) and 98% in [7]. In addition, the chromatographic logP was 3.42 in data set [1] (setting [12]) and 4.77 in data set [1] (setting [13]).

As for `CC(C)Oc1ccc(-c2ccc(C3CCC(c4c(F)cccc4F)=N3)cc2)cn1` (stereo not drawn) [compound 7], the “Efficacy in % after 6 d” value in data set [9] is listed as 99%. Further, the pest or weed control at 100 ppm in data set [2] and in data set [3] was 100% each time. In addition, the “Efficacy in % after 7 d” value in data set [4], in data set [5] (100 ppm active compound), in [10] and in [6] (100 ppm active compound) was 100% each time. The chromatographic logP in data set [1] (setting [12]) was found to be 3.42; in data set [1] (setting [13]) it was 4.73.

Turning to `CC(C)Sc1ccc(-c2ccc(C3CCC(c4c(F)cccc4F)=N3)cc2)cn1` (stereo not drawn) [compound 8], the pest or weed control at 100 ppm in [2] and in data set [3] was 100% in each case. The “Efficacy in % after 7 d” value in data set [4] amounted to 100%; in data set [5] (100 ppm active compound), 100%; in data set [6] (100 ppm active compound), 100%; in data set [7], 98%. Besides, the figures for the chromatographic logP in data set [1] (setting [12]) and in data set [1] (setting [13]) were 3.8 and 4.96, respectively.

For `Fc1cccc(F)c1C1=NC(c2ccc(-c3ccc(OC4CCC4)nc3)cc2)CC1` (stereo not drawn) [compound 19], in data set [2] (20 ppm active compound), the pest or weed control at 20 ppm amounted to 100%. In addition, in data set [3], the pest or weed control at 100 ppm was 100%. Besides, in data set [7], the “Efficacy in % after 7 d” value amounted to 95%. The figures for the chromatographic logP in [1] (setting [12]) and in data set [1] (setting [13]) were 3.66 and 4.9, respectively. The mortality at 20 ppm in [8] (setting [14]) worked out at 100%. Besides, in data set [8] (setting [14]), the mortality at 100 ppm was 100%.

Regarding `Fc1cccc(F)c1C1=NC(c2ccc(-c3ccc(OC4CCCC4)nc3)cc2)CC1` (stereo not drawn) [compound 21], the pest or weed control at 100 ppm in [2] and in data set [3] was 100% each time. In addition, the “Efficacy in % after 7 d” value in data set [7] came to 95%. Moreover, the chromatographic logP in data set [1] (setting [12]) is 3.99; in data set [1] (setting [13]) it was 5.34.

In the case of `Fc1cccc(F)c1C1=NC(c2ccc(-c3ccc(OCC4CC4)nc3)cc2)CC1` (stereo not drawn) [compound 25], the pest or weed control at 100 ppm in [2] and in [3] was 100% in each case. The “Efficacy in % after 7 d” value in data set [5] (20 ppm active compound), in data set [6] (20 ppm active compound) and in data set [11] was 100% each time. The chromatographic logP in data set [1] (setting [12]) is 3.48; in data set [1] (setting [13]), 4.67. Also, the mortality at 100 ppm in data set [8] (48 h, read-out: % Activity/kill (48 h)) is 100%. Also, the mortality at 20 ppm in [8] (setting [14]) worked out at 100%.
